From PMC6152131, “Pharmacokinetic Study of Biotransformation Products from an Anxiolytic Fraction of Tilia americana” (Molecules : A Journal of Synthetic Chemistry and Natural …, 2017)
Like-named read-outs stand apart in the source and are kept apart here.

Assays:
[1] = Plasma concentration after a single oral dose of the anxiolytic fraction (HPLC); format: in vivo, ICR mice; conditions: oral 200 mg/kg anxiolytic fraction, immediately after administration and over 24 h
Experimental: Eleven groups of ten animals each were randomly formed. All animals were orally administered with 200 mg/kg of the active fraction. Animals were anaesthetized with ether, and blood samples were obtained from the retroorbital sinus with a heparinized capillary, each group was examined at different times (0, 5, 10, 15, 30, 60, 120, 240, 480, 720, and 1440 min) after the active fraction was administered. […] Then the plasma samples were frozen and lyophilized. The dry plasma was subsequently used to extract and measure the concentration of the flavonoids and biotransformation products.
(§1) Plasma dried pulverized samples were extracted with methanol (HPLC grade, Merck). The extracts were filtered with Teflon membrane dimensions 0.45 μm by 13 mm (Millex®-LCR); 20 μL of each filtered sample was injected into the HPLC equipment. The measurements were performed in a (Waters corporation, Milford, CT, USA) 2695 HPLC with a diode array detector (Waters 2996) and processed with the Empower Pro 1.0 software. A Chromolith Performance® RP-18e 100 × 4.6 mm (Merck KGaA, Darmstadt, Germany) was used. The mobile phase consisted of a mixture of acetonitrile and water with the proportion 55:45 and a flow rate of 1 mL/min. The concentrations of the flavonoids and the biotransformation products were obtained by comparison with a pre-built calibration curve at λ = 220 nm.
To evaluate the suitability of the assay for the pharmacokinetic studies, 200 mg/kg of the active fraction was orally administered to the animals. Ten animals were used in each group at different times (0, 5, 10, 15, 30, 60, 120, 240, 480, 720, and 1440 min). Pharmacokinetic calculations were performed using the observed data. All data was subsequently processed using the PKSolver add-in program for Microsoft Excel written in Visual Basic for Applications. All values obtained were expressed in mean ± standard deviation.

[2] = set-up: method as in PMID 11151743; conditions: glucoronides and sulphates of quercetin found in plasma; cited from earlier work
[3] = Stability of flavonoids and biotransformation products in mouse plasma under different handling conditions; format: in vitro ADME, mice
Experimental: as §1
[…] The investigation enclosed here expected manipulation conditions during all the sample storage and process periods, which included the stability data from the freeze/thaw, bench-top, autosampler, and long–term stability tests.
For all stability studies, fresh QC samples were evaluated by using a freshly prepared standard curve for the measurements. The concentrations obtained from all the stability studies were compared with the fresh QC samples, and the percentage concentration deviation was calculated. The analytes were considered stable in the mouse plasma when the concentration difference between the freshly prepared samples and the stability samples was less than 15%.

[4] = storage stability, high nominal conc.
[5] = storage stability, high nominal conc. (7.00; 44.37; 4.50; 31.25 µg/mL), n = 6
[6] = storage stability, low nominal conc.
[7] = storage stability, low nominal conc. (1.75; 11.02; 1.12; 1.95 µg/mL), n = 6
[8] = storage stability, medium nominal conc.

Compound: C[C@@H]1O[C@@H](OC[C@H]2O[C@@H](Oc3c(-c4ccc(O)c(O)c4)oc4cc(O)cc(O)c4c3=O)[C@H](O)[C@@H](O)[C@@H]2O)[C@H](O)[C@H](O)[C@H]1O [Rutin, rutin]
- flavonoids found in the plasma after oral administration [1]: not found
- absorption into the vascular space after oral administration [2]: not absorbed
- Observed Conc. 0 h [3]: 3.39 ± 0.16 µg/mL
- Observed Conc. 8 h [3]: 3.67 ± 0.30 µg/mL
- Observed Conc. 24 h [3]: 3.38 ± 0.27 µg/mL
- Observed Conc. Autosampler (4 °C; 8 h) [3]: 3.44 ± 0.15 µg/mL
- Observed Conc. Long-term (−70 °C; 1 month) [3]: 3.51 ± 0.28 µg/mL
- Accuracy Bias 0 h ([3]; room temperature (25 °C), 0 h, high nominal conc.): −1.99%
- Observed Conc. 0 h ([3]; room temperature (25 °C), 0 h, high nominal conc. (rutin 7.00; quercetin glucoside, quercitrin, tiliroside 44.37; kaempferol 4.50; m-HPAA, p-HPAA, DOPAC 31.25 µg/mL), n = 6): 7.27 ± 0.41 µg/mL
- Accuracy Bias 0 h ([3]; room temperature (25 °C), 0 h, low nominal conc.): 5.76%
- Observed Conc. 0 h ([3]; room temperature (25 °C), 0 h, low nominal conc. (rutin 1.75; quercetin glucoside, quercitrin, tiliroside 11.02; kaempferol 1.12; m-HPAA, p-HPAA, DOPAC 1.95 µg/mL), n = 6): 1.74 ± 0.11 µg/mL
- Accuracy Bias 0 h ([3]; room temperature (25 °C), 0 h, medium nominal conc.): 3.17%
- Accuracy Bias 8 h ([3]; room temperature (25 °C), 8 h, high nominal conc.): −2.45%
- Observed Conc. 8 h ([3]; room temperature (25 °C), 8 h, high nominal conc. (7.00; 44.37; 4.50; 31.25 µg/mL), n = 6): 7.17 ± 0.21 µg/mL
- Accuracy Bias 8 h ([3]; room temperature (25 °C), 8 h, low nominal conc.): 5.46%
- Observed Conc. 8 h ([3]; room temperature (25 °C), 8 h, low nominal conc. (1.75; 11.02; 1.12; 1.95 µg/mL), n = 6): 1.65 ± 0.10 µg/mL
- Accuracy Bias 8 h ([3]; room temperature (25 °C), 8 h, medium nominal conc.): −4.97%
- Accuracy Bias 24 h ([3]; room temperature (25 °C), 24 h, high nominal conc.): −3.93%
- Observed Conc. 24 h ([3]; room temperature (25 °C), 24 h, high nominal conc. (7.00; 44.37; 4.50; 31.25 µg/mL), n = 6): 7.13 ± 0.24 µg/mL
- Accuracy Bias 24 h ([3]; room temperature (25 °C), 24 h, low nominal conc.): 0.33%
- Observed Conc. 24 h ([3]; room temperature (25 °C), 24 h, low nominal conc. (1.75; 11.02; 1.12; 1.95 µg/mL), n = 6): 1.64 ± 0.10 µg/mL
- Accuracy Bias 24 h ([3]; room temperature (25 °C), 24 h, medium nominal conc.): 2.93%
- Accuracy Bias Autosampler (4 °C; 8 h) [3, 4]: −1.17%
- Accuracy Bias Long-term (−70°C; 1 month) [3, 4]: −1.56%
- Observed Conc. Autosampler (4 °C; 8 h) [3, 5]: 7.08 ± 0.34 µg/mL
- Observed Conc. Long-term (−70 °C; 1 month) [3, 5]: 7.10 ± 0.38 µg/mL
- Accuracy Bias Autosampler (4 °C; 8 h) [3, 6]: −6.41%
- Accuracy Bias Long-term (−70°C; 1 month) [3, 6]: 2.92%
- Observed Conc. Autosampler (4 °C; 8 h) [3, 7]: 1.86 ± 0.19 µg/mL
- Observed Conc. Long-term (−70 °C; 1 month) [3, 7]: 1.69 ± 0.12 µg/mL
- Accuracy Bias Autosampler (4 °C; 8 h) [3, 8]: 1.58%
- Accuracy Bias Long-term (−70°C; 1 month) [3, 8]: −0.45%
